Assay results: patent US20230167073A1 (Teijin Pharma Limited, priority 2020, published 2023)

What follows are molecules tested against T1, Human TRPC6 (Homo sapiens, UniProt Q9Y210) (assay: Evaluation of TRPC6 channel inhibitory activity (1), FLIPR Calcium 5 Assay Kit, OAG stimulation (Compound Nos. 1-1293)). Details: Human TRPC6 stably-expressing cells, OAG 30 μM, FLIPR Calcium 5 Assay Kit; read-out: Inhibitory activity (pIC50 class) (converted).
T1 construct: expressed in transfected cells
T1 sequence (Q9Y210 1-931): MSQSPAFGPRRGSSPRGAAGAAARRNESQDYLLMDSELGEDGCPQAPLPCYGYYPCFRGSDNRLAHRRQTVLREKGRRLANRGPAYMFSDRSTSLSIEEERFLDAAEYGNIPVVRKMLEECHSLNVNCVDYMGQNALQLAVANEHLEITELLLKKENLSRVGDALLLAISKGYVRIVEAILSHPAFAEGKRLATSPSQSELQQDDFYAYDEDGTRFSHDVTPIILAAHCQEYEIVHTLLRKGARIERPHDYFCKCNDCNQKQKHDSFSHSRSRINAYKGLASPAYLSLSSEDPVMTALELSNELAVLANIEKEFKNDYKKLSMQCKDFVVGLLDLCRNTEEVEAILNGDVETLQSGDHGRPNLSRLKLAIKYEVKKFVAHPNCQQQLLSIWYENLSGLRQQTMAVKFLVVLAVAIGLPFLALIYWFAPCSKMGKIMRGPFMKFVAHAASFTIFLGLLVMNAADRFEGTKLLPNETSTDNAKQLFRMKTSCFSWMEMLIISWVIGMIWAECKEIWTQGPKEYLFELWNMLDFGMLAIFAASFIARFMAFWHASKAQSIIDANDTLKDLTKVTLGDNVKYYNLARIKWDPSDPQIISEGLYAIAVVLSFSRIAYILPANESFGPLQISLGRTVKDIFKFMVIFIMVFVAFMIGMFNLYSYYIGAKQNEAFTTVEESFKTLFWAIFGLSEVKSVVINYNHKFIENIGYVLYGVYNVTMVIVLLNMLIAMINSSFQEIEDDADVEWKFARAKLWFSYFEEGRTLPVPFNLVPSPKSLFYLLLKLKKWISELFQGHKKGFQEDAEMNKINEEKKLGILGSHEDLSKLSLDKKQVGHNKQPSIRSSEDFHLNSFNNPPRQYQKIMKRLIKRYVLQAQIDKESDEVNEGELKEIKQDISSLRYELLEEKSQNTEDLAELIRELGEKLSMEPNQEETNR
Type: cell-based
Method in brief: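 Cells stably expressing human TRPC6, plated 24 h before, were loaded 30 min with Calcium 5 dye plus probenecid in HEPES-HBSS. Compound was added 20 min before OAG (30 μM final) and fluorescence tracked on FLIPR. Inhibition normalised to no-compound and no-compound/no-OAG wells; pIC50 from four-parameter fit, reported as +/++/+++ categories.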

Row | IC50 [nM] | SMILES
1 | < 10 | Cc1nc(Oc2cc(C#N)ccc2-c2ccc(C(O)CN)cc2C)cc(N2CCOCC2)n1 (stereo not drawn) [Compound 157, 4-[4-(2-amino-1-hydroxyethyl)-2-methylphenyl]-3-(2-methyl-6-morpholin-4-ylpyrimidin-4-yl)oxybenzonitrile]
2 | < 10 | Cn1nc(-c2ccccn2)cc1Oc1cc(C#N)ccc1-c1ccc(CCN)cc1 [Compound 160, 4-[4-(2-aminoethyl)phenyl]-3-(2-methyl-5-pyridin-2-ylpyrazol-3-yl)oxybenzonitrile]
3 | < 10 | Cn1nc(-c2ccccn2)cc1Oc1cc(C#N)ccc1-c1ccc(C(O)CN)cc1 (stereo not drawn) [Compound 161, 4-[4-(2-amino-1-hydroxyethyl)phenyl]-3-(2-methyl-5-pyridin-2-ylpyrazol-3-yl)oxybenzonitrile]
4 | 10 to 1000 | Cn1nc(-c2cccnc2)cc1Oc1cc(C#N)ccc1-c1ccc(CCN)cc1 [Compound 163, 4-[4-(2-aminoethyl)phenyl]-3-(2-methyl-5-pyridin-3-ylpyrazol-3-yl)oxybenzonitrile]
5 | < 10 | Cc1cc(Oc2cc(C#N)ccc2-c2ccc(CCN)nc2)cc(N2CCOCC2)n1 [Compound 172, 4-[6-(2-aminoethyl)pyridin-3-yl]-3-(2-methyl-6-morpholin-4-ylpyridin-4-yl)oxybenzonitrile]
6 | < 10 | Cn1nc(-c2ccccc2)cc1Oc1cc(C#N)ccc1-c1ccc(CCN)cn1 [Compound 175, 4-[5-(2-aminoethyl)pyridin-2-yl]-3-(2-methyl-5-phenylpyrazol-3-yl)oxybenzonitrile]
7 | < 10 | Cn1nc(-c2cccnc2)cc1Oc1cc(C#N)ccc1-c1ccc(C(O)CN)cc1 (stereo not drawn) [Compound 177, 4-[4-(2-amino-1-hydroxyethyl)phenyl]-3-(2-methyl-5-pyridin-3-ylpyrazol-3-yl)oxybenzonitrile]
8 | < 10 | Cc1ccc(-c2cc(Oc3cc(C#N)ccc3-c3ccc(C(O)CN)cc3)n(C)n2)nc1 (stereo not drawn) [Compound 180, 4-[4-(2-amino-1-hydroxyethyl)phenyl]-3-[2-methyl-5-(5-methylpyridin-2-yl)pyrazol-3-yl]oxybenzonitrile]
9 | < 10 | Cc1ccc(-c2cc(Oc3cc(C#N)ccc3-c3ccc(CCN)cn3)n(C)n2)nc1 [Compound 182, 4-[5-(2-aminoethyl)pyridin-2-yl]-3-[2-methyl-5-(5-methylpyridin-2-yl)pyrazol-3-yl]oxybenzonitrile]

More lines, now with the values behind:

Row | SMILES | IC50 [nM]
10 | Cc1nc(Oc2cc(C#N)ccc2-c2ccc(C(O)CN)c(CC#N)c2)cc(N2CCOCC2)n1 (stereo not drawn) [Compound 158, 4-[4-(2-amino-1-hydroxyethyl)-3-(cyanomethyl)phenyl]-3-(2-methyl-6-morpholin-4-ylpyrimidin-4-yl)oxybenzonitrile] | 10 to 1000
11 | Cc1nc(Oc2cc(C#N)ccc2-n2cc(C(O)CN)cn2)cc(-c2cccc(Cl)c2)n1 (stereo not drawn) [Compound 159, 4-[4-(2-amino-1-hydroxyethyl)pyrazol-1-yl]-3-[6-(3-chlorophenyl)-2-methylpyrimidin-4-yl]oxybenzonitrile] | < 10
12 | Cn1nc(-c2ccccn2)cc1Oc1cc(C#N)ccc1-c1ccc(CCN)nc1 [Compound 162, 4-[6-(2-aminoethyl)pyridin-3-yl]-3-(2-methyl-5-pyridin-2-ylpyrazol-3-yl)oxybenzonitrile] | < 10
13 | Cc1ccc(-c2cc(Oc3cc(C#N)ccc3-c3ccc(CCN)cc3)n(C)n2)nc1 [Compound 164, 4-[4-(2-aminoethyl)phenyl]-3-[2-methyl-5-(5-methylpyridin-2-yl)pyrazol-3-yl]oxybenzonitrile] | < 10
14 | Cn1nc(-c2ccc(F)cc2)cc1Oc1cc(C#N)ccc1-c1ccc(CCN)cc1 [Compound 165, 4-[4-(2-aminoethyl)phenyl]-3-[5-(4-fluorophenyl)-2-methylpyrazol-3-yl]oxybenzonitrile] | 10 to 1000
15 | Cc1nc(Oc2cc(C#N)ccc2-c2ccc(CCN)nc2)cc(-c2ccccn2)n1 [Compound 166, 4-[6-(2-aminoethyl)pyridin-3-yl]-3-(2-methyl-6-pyridin-2-ylpyrimidin-4-yl)oxybenzonitrile] | 10 to 1000
16 | Cc1nc(Oc2cc(C#N)ccc2-c2ccc(CCN)nc2)cc(-c2cccc(F)c2)n1 [Compound 167, 4-[6-(2-aminoethyl)pyridin-3-yl]-3-[6-(3-fluorophenyl)-2-methylpyrimidin-4-yl]oxybenzonitrile] | 10 to 1000
17 | Cc1nc(Oc2cc(C#N)ccc2-c2csc(C(O)CN)n2)cc(N2CCOCC2)n1 (stereo not drawn) [Compound 168, 4-[2-(2-amino-1-hydroxyethyl)-1,3-thiazol-4-yl]-3-(2-methyl-6-morpholin-4-ylpyrimidin-4-yl)oxybenzonitrile] | 10 to 1000
18 | Cc1nc(Oc2cc(C#N)ccc2-n2cnc(C(O)CN)c2)cc(N2CCOCC2)n1 (stereo not drawn) [Compound 169, 4-[4-(2-amino-1-hydroxyethyl)imidazol-1-yl]-3-(2-methyl-6-morpholin-4-ylpyrimidin-4-yl)oxybenzonitrile] | > 1000
19 | Cc1nc(Oc2cc(C#N)ccc2-n2cc([C@@H](O)CN)cn2)cc(-c2ccccc2)n1 [Compound 170, 4-[4-[(1R)-2-Amino-1-hydroxyethyl]pyrazol-1-yl]-3-(2-methyl-6-phenylpyrimidin-4-yl)oxybenzonitrile] | < 10
20 | Cc1nc(Oc2cc(C#N)ccc2-n2cc([C@H](O)CN)cn2)cc(-c2ccccc2)n1 [Compound 171, 4-[4-[(1S)-2-amino-1-hydroxyethyl]pyrazol-1-yl]-3-(2-methyl-6-phenylpyrimidin-4-yl)oxybenzonitrile] | < 10
21 | Cc1cc(Oc2cc(C#N)ccc2-c2ccc(CCN)cn2)cc(N2CCOCC2)n1 [Compound 173, 4-[5-(2-aminoethyl)pyridin-2-yl]-3-(2-methyl-6-morpholin-4-ylpyridin-4-yl)oxybenzonitrile] | < 10
22 | Cn1nc(-c2ccccc2)cc1Oc1cc(C#N)ccc1-c1ccc(CCN)nc1 [Compound 174, 4-[6-(2-aminoethyl)pyridin-3-yl]-3-(2-methyl-5-phenylpyrazol-3-yl)oxybenzonitrile] | < 10
23 | Cn1nc(-c2ccccn2)cc1Oc1cc(C#N)ccc1-c1ccc(CCN)cn1 [Compound 176, 4-[5-(2-aminoethyl)pyridin-2-yl]-3-(2-methyl-5-pyridin-2-ylpyrazol-3-yl)oxybenzonitrile] | < 10
24 | Cn1nc(-c2cccnc2)cc1Oc1cc(C#N)ccc1-c1ccc(CCN)nc1 [Compound 178, 4-[6-(2-aminoethyl)pyridin-3-yl]-3-(2-methyl-5-pyridin-3-ylpyrazol-3-yl)oxybenzonitrile] | 10 to 1000
25 | Cn1nc(-c2cccnc2)cc1Oc1cc(C#N)ccc1-c1ccc(CCN)cn1 [Compound 179, 4-[5-(2-aminoethyl)pyridin-2-yl]-3-(2-methyl-5-pyridin-3-ylpyrazol-3-yl)oxybenzonitrile] | < 10
26 | Cc1ccc(-c2cc(Oc3cc(C#N)ccc3-c3ccc(CCN)nc3)n(C)n2)nc1 [Compound 181, 4-[6-(2-aminoethyl)pyridin-3-yl]-3-[2-methyl-5-(5-methylpyridin-2-yl)pyrazol-3-yl]oxybenzonitrile] | 10 to 1000
27 | Cn1nc(-c2ccc(F)cc2)cc1Oc1cc(C#N)ccc1-c1ccc(C(O)CN)cc1 (stereo not drawn) [Compound 183, 4-[4-(2-amino-1-hydroxyethyl)phenyl]-3-[5-(4-fluorophenyl)-2-methylpyrazol-3-yl]oxybenzonitrile] | < 10
